Test results: patent publication US20090088432A1, “Thiazolinones and Oxazolinones and their Use as Ptp1b Inhibitors” (priority 2005, published 2009)

These molecules were tested against T1, Recombinant human Protein-tyrosine phosphatase1B (PTP1B) (Homo sapiens, UniProt P18031) (assay: PTP1B enzyme inhibition assay (pNpp substrate)). Conditions: inhibition of recombinant human PTP1B, pNpp 5 mM, 30 mins at 25° C; inhibitor concentration not given.
T1 construct: Recombinant human Protein-tyrosine phosphatase1B (PTP1B) (amino acid 1-322 Biomol, USA); purchased Biomol, USA
T1 sequence (P18031 1-322): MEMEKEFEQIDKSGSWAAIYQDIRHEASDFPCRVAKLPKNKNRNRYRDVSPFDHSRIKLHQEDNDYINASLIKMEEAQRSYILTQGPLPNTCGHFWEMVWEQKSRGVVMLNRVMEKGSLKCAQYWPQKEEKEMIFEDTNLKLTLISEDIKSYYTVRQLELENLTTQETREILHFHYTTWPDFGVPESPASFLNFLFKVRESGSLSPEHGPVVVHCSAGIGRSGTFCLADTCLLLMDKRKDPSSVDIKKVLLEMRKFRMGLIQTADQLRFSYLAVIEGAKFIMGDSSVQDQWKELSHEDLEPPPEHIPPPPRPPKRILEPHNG
Assay type: biochemical
Protocol: Protein tyrosine phosphatase 1B (PTP1B) is an intracellular enzyme which functions by removing the phosphate groups from phosphorylated tyrosine residues of cellular proteins. PTP1B has been implicated as a negative regulator of insulin action and therefore is of therapeutic interest. The ability of the test compounds to inhibit the activity of PTP1B is determined using an enzyme inhibition assay.
The assay is performed using two independent substrates of PTP1B namely, p-nitrophenyl phosphate (pNpp) and the phosphorylated Epidermal growth factor receptor peptide (EGFR).
In the assay performed with pNpp, the action of PTP1B results in the release of p-nitrophenol, which is yellow in colour and can be measured at 410 nm. In the case of the assay using EGFR, action of PTP1B results in the release of free phosphate group. This is trapped using a reagent containing ammonium molybdate and malachite green resulting in a colored complex whose absorbance can be measured at 620 nm.
1× Assay buffer 50 mM HEPES (pH 7.4) • 1 mM EDTA • 1 mM DTT • 0.05% Igepal® CA-630
Dilute recombinant Human PTP1B 1:150 in 1× Assay buffer for 10× stock,
Prepare 10× stock of pNpp (50 mM) in 1× Assay buffer
Prepare 100× stock in 100% DMSO, dilute 1:10 with 1× Assay buffer to get 10× stock in 10% DMSO.
PTP1B inhibition assay was performed using recombinant human PTP1B. PTP1B (0.016 μg/well) was incubated in a buffer containing 50 mM HEPES, 1 mM DTT, 1 mM EDTA and 0.05% Igepal® CA-630 with or without inhibitor (10× stock, final DMSO concentration is 1%) for 30 mins at 25° C. This was followed by addition of p-Nitrophenyl phosphate (pNpp) substrate (5 mM). The final volume of the reaction mixture is 50 μL and experiment was done in 96 well half area plate. The incubation was continued for 30 mins at 25° C. The conversion of pNpp to p-Nitrophenol (pNp) was measured at 410 nm in Spectramaxplus Spectrophotometer (Molecular Devices, USA).
With O=C1N=C(Nc2ccc(CC(C(=O)O)C(=O)O)cc2)SC1=Cc1ccc(-c2ccccc2)cc1 [Compound 67, 2-[4-(5-Biphenyl-4-ylmethylene-4-oxo-4,5-dihydro-thiazol-2-ylamino)-benzyl]-malonic acid] the “Activity Score” value was “(++) (++ = 20-50% inhibition)”.
In the case of O=C(O)Cc1ccc(NC2=NC(=O)C(=Cc3coc4ccccc4c3=O)S2)cc1 [Compound 71, {4-[4-oxo-5-(4-oxo-4H-chromen-3-ylmethylene)-4,5-dihydro-thiazol-2-ylamino]-phenyl}-acetic acid], the “Activity Score” value is reported as “(+++) (+++ = >50% inhibition)”.
With O=C(O)Cc1ccc(NC2=NC(=O)C(=Cc3ccc(C(F)(F)F)cc3)S2)cc1 [Compound 72, {4-[4-Oxo-5-(4-trifluoro methyl-benzylidene)-4,5-dihydro-thiazol-2-ylamino]-phenyl}-acetic acid] the “Activity Score” value was “(+) (+ = 10-20% inhibition)”.
CCC(C(=O)[O-])c1ccc(NC2=NC(=O)C(=Cc3cc4ccccc4cc3OCc3ccccc3)S2)cc1.[Na+] [Compound 84, 2-{4-[L-(3-Benzyloxy-naphthalen-2-ylmethylene)-4-oxo-4,5-dihydro-thiazol-2-ylamino]-phenyl}-sodium butyrate] was tested, and the “Activity Score” value was “(+++) (+++ = >50% inhibition)”.
In the case of O=C(O)Cc1ccc(NC2=NC(=O)C(=Cc3cc4ccccc4cc3OCc3ccc(F)cc3)S2)cc1 [Compound 85, (4-{5-[3-(4-Fluoro-benzyloxy)-naphthalen-2-ylmethylene]-4-oxo-4,5-dihydro-thiazol-2-ylamino}-phenyl)-acetic acid], the “Activity Score” value is reported as “(+++) (+++ = >50% inhibition)”.
With O=C(O)Cc1ccc(NC2=NC(=O)C(=Cc3cccc(-n4cncn4)c3)S2)cc1 [Compound 87, {4-[4-Oxo-5-(3-[1,2,4]triazol-1-yl-benzylidene)-4,5-dihydro-thiazol-2-ylamino]-phenyl}-acetic acid] the “Activity Score” value was “(+) (+ = 10-20% inhibition)”.
For O=C(O)Cc1ccc(NC2=NC(=O)C(=Cc3cccc(-n4cnc5ccccc54)c3)S2)cc1 [Compound 88, {4-[5-(3-Benzoimidazol-1-yl-benzylidene)-4-oxo-4,5-dihydro-thiazol-2-ylamino]-phenyl}-acetic acid], the “Activity Score” value was “(+++) (+++ = >50% inhibition)”.
For O=C([O-])CCc1ccc(NC2=NC(=O)C(=Cc3ccc4ccccc4c3)S2)cc1.[Na+] [Compound 89, 3-[4-(5-Naphthalen-2-ylmethylene-4-oxo-4,5-dihydro-thiazol-2-ylamino)-phenyl]-sodium propionate], the “Activity Score” value was “(+) (+ = 10-20% inhibition)”.
With O=C(O)Cc1ccc(NC2=NC(=O)C(=Cc3cccc(N4CCN(c5ccccn5)CC4)c3)S2)cc1 [Compound 90, (4-{4-Oxo-5-[3-(4-pyridin-2-yl-piperazin-1-yl)-benzylidene]-4,5-dihydro-thiazol-2-ylamino}-phenyl)-acetic acid] the “Activity Score” value was “(+++) (+++ = >50% inhibition)”.
For O=C(O)Cc1ccc(NC2=NC(=O)C(=Cc3cccc(-n4cccn4)c3)S2)cc1 [Compound 91, {4-[4-Oxo-5-(3-pyrazol-1-yl-benzylidene)-4,5-dihydro-thiazol-2-ylamino]-phenyl}-acetic acid], the “Activity Score” value was “(++) (++ = 20-50% inhibition)”.
O=C(O)Cc1ccc(NC2=NC(=O)C(=Cc3ccc(-c4ccccc4)cc3)S2)cc1 [Compound 94, [4-(5-Biplenyl-4-ylmethylene-4-oxo-4,5-dihydro-thiazol-2-ylamino)-phenyl]-acetic acid] was tested, and the “Activity Score” value was “(+) (+ = 10-20% inhibition)”.
O=C([O-])CCc1ccc(NC2=NC(=O)C(=Cc3cc4ccccc4cc3OCc3ccccc3)S2)cc1.[Na+] [Compound 96, 3-{4-[5-(3-Benzyloxy-naphthalen-2-ylmethylene)-4-oxo-4,5-dihydro-thiazol-2-lamino]-phenyl}-sodium propionate] was tested, and the “Activity Score” value was “(+++) (+++ = >50% inhibition)”.
For O=C(O)Cc1ccc(NC2=NC(=O)C(=Cc3ccc(-c4ccccc4)cc3)O2)cc1 [Compound 100, [4-(5-Biphenyl-4-ylmethylene-4-oxo-4,5-dihydro-oxazol-2-ylamino)-phenyl]-acetic acid], the “Activity Score” value was “(++) (++ = 20-50% inhibition)”.
In the case of O=C(Cc1ccc(NC2=NC(=O)C(=Cc3ccc(-n4cccn4)cc3)S2)cc1)NS(=O)(=O)c1ccccc1 [Compound 103, N-(2-{4-[4-Oxo-5-(4-pyrazol-1-yl-benzylidene)-4,5-dihydro-thiazol-2-ylamino]-phenyl}-acetyl)-benzenesulfonamide], the “Activity Score” value is reported as “(+) (+ = 10-20% inhibition)”.
For Cc1ccc(S(=O)(=O)NC(=O)Cc2ccc(NC3=NC(=O)C(=Cc4cc5ccccc5cc4OCc4ccccc4)S3)cc2)cc1.[Na] [Compound 104, N-(2-{4-[5-(3-Benzyloxy-naphthalen-2-ylmethylene)-4-oxo-4,5-dihydro-thiazol-2-ylamino]-phenyl}-acetyl)-4-methyl-benzenesulfonamide sodium salt], the “Activity Score” value was “(++) (++ = 20-50% inhibition)”.
For O=C([O-])Cc1ccc(NC2=NC(=O)C(=Cc3cc4ccccc4cc3OCc3ccc(F)cc3)S2)cc1.[Na+] [Compound 113, (4-{5-[3-(4-Fluoro-benzyloxy)-naphthalen-2-ylmethylene-4-oxo-4,5-dihydro-thiazol-2-ylamino)-phenyl]-acetyl}-sodium acetate], the “Activity Score” value was “(+++) (+++ = >50% inhibition)”.
In the case of Cc1ccc(S(=O)(=O)NC(=O)Cc2ccc(NC3=NC(=O)C(=Cc4ccc5c(c4)OCCO5)S3)cc2)cc1 [Compound 125, N-(2-{4-[5-(2,3-Dihydro-benzo[1,4]dioxin-6-ylmethylene)-4-oxo-4,5-dihydro-thiazol-2-ylamino]-phenyl}-acetyl)-4-methyl-benzenesulfonamide], the “Activity Score” value is reported as “(+++) (+++ = >50% inhibition)”.
In the case of O=C(O)Cc1csc(NC2=NC(=O)C(=Cc3ccc(-c4ccccc4)cc3)S2)n1 [Compound 130, [2-(5-Biphenyl-4-ylmethylene-4-oxo-4,5-dihydro-thiazol-2-ylamino)-thiazol-4-yl]-acetic acid], the “Activity Score” value is reported as “(++) (++ = 20-50% inhibition)”.
With Cc1ccc(S(=O)(=O)NC(=O)Cc2ccc(NC3=NC(=O)C(=Cc4ccc(-n5cnnn5)c(OCc5ccccc5)c4)S3)cc2)cc1.[Na] [Compound 131, N-(2-{4-[5-(3-Benzyloxy-4-tetrazol-1-yl-benzylidene)-4-oxo-4,5-dihydro-thiazol-2-ylamino]-phenyl}-acetyl)-4-methyl-benzenesulfonamide sodium salt] the “Activity Score” value was “(+++) (+++ = >50% inhibition)”.
In the case of O=C(O)Cc1csc(NC2=NC(=O)C(=Cc3cc4ccccc4cc3OCc3ccccc3)S2)n1 [Compound 133, {2-[5-(3-Benzyloxy-naphthalen-2-ylmethylene)-4-oxo-4,5-dihydro-thiazol-2-ylamino]-thiazol-4-yl}-acetic acid], the “Activity Score” value is reported as “(+++) (+++ = >50% inhibition)”.
In the case of Cc1cc(C=C2SC(Nc3nc(CC(=O)O)cs3)=NC2=O)nn1-c1ccccc1 [Compound 134, {2-[5-(5-Methyl-1-phenyl-1H-pyrazol-3-ylmethylene)-4-oxo-4,5-dihydro-thiazol-2-ylamino]-thiazol-4-yl}-acetic acid], the “Activity Score” value is reported as “(++) (++ = 20-50% inhibition)”.
O=C(O)Cc1ccc(NC2=NC(=O)C(=Cc3cc4ccccc4cc3OCC3CCCO3)S2)cc1 (stereo not drawn) [Compound 142, (4-{4-Oxo-5-[3-(tetrahydro-furan-2-ylmethoxy)-naphthalen-2-ylmethylene]-4,5-dihydro-thiazol-2-ylamino}-phenyl)-acetic acid] was tested, and the “Activity Score” value was “(++) (++ = 20-50% inhibition)”.
With COc1c(C=C2SC(Nc3ccc(CC(=O)O)cc3)=NC2=O)ccc2ccccc12 [Compound 146, {4-[5-(1-Methoxy-naphthalen-2-ylmethylene)-4-oxo-4,5-dihydro-thiazol-2-ylamino]-phenyl}-acetic acid] the “Activity Score” value was “(+++) (+++ = >50% inhibition)”.
In the case of O=C(O)COc1ccc2cc(C=C3SC(Nc4ccc(CC(=O)O)cc4)=NC3=O)ccc2c1 [Compound 163, {4-[5-(6-Carboxymethoxy-naphthalen-2-ylmethylene)-4-oxo-4,5-dihydro-thiazol-2-ylamino]-phenyl}-acetic acid], the “Activity Score” value is reported as “(+++) (+++ = >50% inhibition)”.
